Measurements taken from patent US9522881B2, “Hydroxyindole carboxylic acid based inhibitors for oncogenic Src homology-2 domain containing protein tyrosine phosphatase-2 (SHP2)” (Indiana University Research and Technology Corporation, priority 2013, dated 2016).
Entries after “also recorded” stand apart in the source; their conditions may differ.

Assays:
[1] = molecular target: SHP2 (D2C) (Homo sapiens (Human), UniProt Q06124); test: SHP2 (D2C) pNPP inhibition assay, hits of library 7′a-c; type: biochemical; details: for IC50: pNPP substrate, pH 7, 25° C., library 7′a / 7′c hits
Description: These three libraries were further screened at 10 μM for SHP2. […] Three pairs of hits bearing the same amine scaffold from library 7′a and 7′c were resynthesized and purified by HPLC. […] (Table 1).
In this Example, SHP2 (D2C) was used to transform into E. coli BL21/DE3 and grown in LB medium containing 50 μg/ml kanamycin at 37° C. to an OD600 of 0.4. Following the addition of IPTG to a final concentration of 20 μM, the culture was incubated at 20° C. with shaking for an additional 16 hours. The cells were harvested by centrifugation at 5000 rpm for 5 minutes at 4° C. The bacterial cell pellets were resuspended in 20 mM Tris, pH 7.9, 500 mM NaCl, 5 mM imidazole, and were lysed by passage through a French press cell at 1,200 psi twice. Cellular debris was removed by centrifugation at 16,000 rpm for 30 minutes at 4° C. The protein was purified from the supernatant using standard procedures of Ni-nitrilotriacetic acid-agarose (Qiagen) affinity purification. The protein eluted from Ni-NTA column was concentrated with an Amicon Ultra centrifugal filter device (Millipore) and the buffer was changed to 20 mM Tris, pH 7.5, 150 mM NaCl, 1 mM EDTA and 1 mM DTT. Protein concentration was determined using the Bradford dye binding assay (Bio-Rad) diluted according to the manufacturer's recommendations with bovine serum albumin as standard. The purified SHP 2 (D2C) were made to 30% glycerol and stored at −20° C.
Inhibition Study: The inhibition assays were performed at 25° C. in 50 mM 3,3-dimethylglutarate buffer, pH 7.0, containing 1 mM EDTA with an ionic strength of 0.15M adjusted by NaCl. The salicylic acid based library was screened in a 96-well format at 10 μM compound concentration. […] The reaction was quenched after 10 minutes by the addition of 50 μl of 5N NaOH, and then this reaction mixture was detected for absorbance at 405 nm by a Spectra MAX340 microplate spectrophotometer (Molecular Devices). IC50 values were calculated by fitting the absorbance at 405 nm versus inhibitor concentration to the following equation: AI/A0=IC50/(IC50+[I]) where AI is the absorbance at 405 nm of the sample in the presence of inhibitor; A0 is the absorbance at 405 nm in the absence of inhibitor; and [I] is the concentration of the inhibitor.

[2] = molecular target: SHP2 (Homo sapiens (Human), UniProt Q06124); test: SHP2-catalyzed hydrolysis of p-nitrophenyl phosphate (pNPP); type: biochemical; details: for IC50: pNPP substrate, pH 7.0, 25° C.
Description: Libraries 11a-d were screened at ˜5 μM for SHP2 inhibitors without further purification. The ability of the library components to inhibit the SHP2-catalyzed hydrolysis of p-nitrophenyl phosphate (pNPP) was evaluated at pH 7.0 and 25° C. More particularly, the phosphatase activity of SHP2 was assayed using p-nitrophenyl phosphate (pNPP) as a substrate at 25° C. in 50 mM 3,3-dimethylglutarate buffer, pH 7.0, containing 1 mM EDTA with an ionic strength of […] adjusted by NaCl. The libraries were screened in a 96-well format at 5 μM compound concentration. […] The nonenzymatic hydrolysis of pNPP was corrected by measuring the control without the addition of enzyme. The amount of product p-nitrophenol was determined from the absorbance at 405 nm detected by a Spectra MAX340 microplate spectrophotometer (Molecular Devices, Sunnyvale, Calif.) using a molar extinction coefficient of 18,000 M^−1 cm^−1. […] IC50 values for selected resynthesized and purified hits were calculated by fitting the absorbance at 405 nm versus inhibitor concentration to the following equation: AI/A0=IC50/(IC50+[I]) where AI is the absorbance at 405 nm of the sample in the presence of the inhibitor; A0 is the absorbance at 405 nm in the absence of inhibitor; and [I] is the concentration of the inhibitor.

[3] = test system: EGF-induced Erk1/2 phosphorylation; test: EGF-induced Erk1/2 phosphorylation in H1975 cells (immunoblot); type: cell-based, human; details: H1975 cells, 2 μM
Description: (§1) For biochemical studies, H1975 cells were serum-starved overnight followed by treatment with vehicle or compound 11a-1 for 3 hours, and then either left unstimulated or stimulated with 5 ng/ml EGF (Sigma, St. Louis, Mo.) for 60 minutes. Lysates were then resolved by SDS-PAGE and the protein phosphorylation levels were detected by immunoblot analysis. Specifically, cells were lysed in lysis buffer (1.0% Nonidet P-40, 50 mM Tris-HCl (pH 7.4), 150 mM NaCl, 5 mM EDTA, 2 mM NaVO3, 10 mM NaF) plus a protease inhibitor mixture available from Roche (Basel, Switzerland) and centrifuged at 10,000 rpm for 5 minutes at 4° C. Supernatants were collected and protein concentration was determined using the BCA protein assay (ThermoFisher Scientific, Rockford, Ill.). Equal amount of protein extracts were mixed with gel loading buffer and separated on SDS-PAGE. After electrophoresis, the proteins were transferred onto nitrocellulose membranes and nonspecific binding was blocked with 5% nonfat dry milk in Tris-buffered saline containing 0.1% Tween-20 (TBS-T). Membranes were then probed with various antibodies overnight at 4° C. on a rocker. After incubation, membranes were washed with TBS-T and incubated with appropriate horseradish peroxidase (HRP)-conjugated secondary antibodies for 1 hour at room temperature. Finally, the proteins on the membranes were detected using SuperSignal West Dura Luminol/Enhancer solution (ThermoFisher Scientific, Rockford, Ill.) and membranes were analyzed using Bio-Rad ChemiDoc XRS Imaging System.

[4] = test system: Paxillin (pY118); test: Paxillin (pY118) phosphorylation in H1975 cells (immunoblot); type: cell-based, human; details: 2 μM
Description: as §1

SHP2, sequence (Q06124 whole entry, looked up): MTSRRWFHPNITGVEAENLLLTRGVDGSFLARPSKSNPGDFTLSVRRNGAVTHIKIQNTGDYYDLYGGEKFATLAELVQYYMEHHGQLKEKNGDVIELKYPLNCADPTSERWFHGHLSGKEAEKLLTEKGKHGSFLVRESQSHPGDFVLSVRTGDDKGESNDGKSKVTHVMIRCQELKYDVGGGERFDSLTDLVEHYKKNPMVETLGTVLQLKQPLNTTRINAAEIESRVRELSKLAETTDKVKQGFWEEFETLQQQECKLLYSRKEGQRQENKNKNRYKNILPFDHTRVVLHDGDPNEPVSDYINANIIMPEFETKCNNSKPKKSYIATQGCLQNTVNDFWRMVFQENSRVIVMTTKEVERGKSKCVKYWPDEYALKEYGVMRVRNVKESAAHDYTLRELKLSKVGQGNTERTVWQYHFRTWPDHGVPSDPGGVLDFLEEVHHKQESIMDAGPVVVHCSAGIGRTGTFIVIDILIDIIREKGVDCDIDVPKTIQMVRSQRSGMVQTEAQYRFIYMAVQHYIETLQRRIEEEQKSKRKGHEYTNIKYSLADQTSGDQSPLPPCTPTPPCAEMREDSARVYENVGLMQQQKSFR
SHP2 (D2C), sequence (Q06124 240-528): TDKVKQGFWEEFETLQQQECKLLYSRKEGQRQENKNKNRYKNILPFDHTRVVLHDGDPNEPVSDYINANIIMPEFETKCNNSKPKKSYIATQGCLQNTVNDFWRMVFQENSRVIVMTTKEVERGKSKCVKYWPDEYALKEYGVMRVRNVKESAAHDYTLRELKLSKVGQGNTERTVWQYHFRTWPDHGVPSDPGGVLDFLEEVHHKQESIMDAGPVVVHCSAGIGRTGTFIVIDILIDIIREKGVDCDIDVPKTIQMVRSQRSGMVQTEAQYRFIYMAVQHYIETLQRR

SMILES | IC50 [1] | IC50 [2] | other results
Cn1c(-c2ccc(C(=O)Nc3cccc(OCc4ccccc4)c3)cc2)c(I)c2cc(C(=O)O)c(O)cc21 [7′c-1, 2-(4-((3-(benzyloxy)phenyl)carbamoyl)phenyl)-6-hydroxy-3-iodo-1-methyl-1H-indole-5-carboxylic acid] | 2400 ± 100 nM | – | –
Cn1c(CCCC(=O)Nc2ccc(OCc3ccccc3)c(Cl)c2)c(I)c2cc(C(=O)O)c(O)cc21 [7′a-3, 2-(4-((4-(benzyloxy)-3-chlorophenyl)amino)-4-oxobutyl)-6-hydroxy-3-iodo-1-methyl-1H-indole-5-carboxylic acid] | > 20000 nM | – | –
Cn1c(CCCC(=O)NCc2ccc3c(c2)OCO3)c(I)c2cc(C(=O)O)c(O)cc21 [7′a-2, 2-(4-((benzo[d][1,3]dioxol-5-ylmethyl)amino)-4-oxobutyl)-6-hydroxy-3-iodo-1-methyl-1H-indole-5-carboxylic acid] | 12600 ± 2800 nM | – | –
Cn1c(-c2ccc(C(=O)Nc3ccc(OCc4ccccc4)c(Cl)c3)cc2)c(I)c2cc(C(=O)O)c(O)cc21 [7′c-3, 2-(4-((4-(benzyloxy)-3-chlorophenyl)carbamoyl)phenyl)-6-hydroxy-3-iodo-1-methyl-1H-indole-5-carboxylic acid] | 1600 nM | – | potency for SHP2 relative to 7′a-3 [1]: 12 fold
Cn1c(-c2cccc(NC(=O)C(=O)O)c2)c(I)c2cc(C(=O)O)c(O)cc21 [10a, 2-(3-(carboxyformamido)phenyl)-6-hydroxy-3-iodo-1-methyl-1H-indole-5-carboxylic acid] | – | 14400 nM | effect on Erk1/2 phosphorylation (SHP2 dependent signaling), in words [3]: no effect; also recorded: failed to block; effect on Paxillin phosphorylation, in words [4]: no effect
Cn1c(-c2ccc(C(=O)O)cc2)c(I)c2cc(C(=O)O)c(O)cc21 [7′c, 2-(4-carboxyphenyl)-6-hydroxy-3-iodo-1-methyl-1H-indole-5-carboxylic acid] | 9200 ± 500 nM | – | –
Cn1c(-c2cccc(NC(=O)C(=O)Nc3ccc(OCc4ccccc4)c(Cl)c3)c2)c(I)c2cc(C(=O)O)c(O)cc21 [11a-3, 2-(3-(2-((4-(benzyloxy)-3-chlorophenyl)amino)-2-oxoacetamido)phenyl)-6-hydroxy-3-iodo-1-methyl-1H-indole-5-carboxylic acid] | – | 660 ± 30 nM | SHP2 inhibition, in words [2]: submicromolar
Cn1c(-c2cccc(NC(=O)C(=O)Nc3nnc(-c4ccccc4)s3)c2)c(I)c2cc(C(=O)O)c(O)cc21 [11a-14, 6-hydroxy-3-iodo-1-methyl-2-(3-(2-oxo-2-((5-phenyl-1,3,4-thiadiazol-2-yl)amino)acetamido)phenyl)-1H-indole-5-carboxylic acid] | – | 1790 ± 150 nM | –
Cn1c(-c2cccc(NC(=O)C(=O)Nc3cccc(-c4ccsc4)c3)c2)c(I)c2cc(C(=O)O)c(O)cc21 [11a-26, 6-hydroxy-3-iodo-1-methyl-2-(3-(2-oxo-2-((3-(thiophen-3-yl)phenyl)amino)acetamido)phenyl)-1H-indole-5-carboxylic acid] | – | 630 ± 40 nM | –
Cn1c(-c2cccc(NC(=O)C(=O)Nc3nccs3)c2)c(I)c2cc(C(=O)O)c(O)cc21 [11a-16, 6-hydroxy-3-iodo-1-methyl-2-(3-(2-oxo-2-(thiazol-2-ylamino)acetamido)phenyl)-1H-indole-5-carboxylic acid] | – | 2310 ± 280 nM | –
Cn1c(-c2cccc(NC(=O)C(=O)Nc3cccc(-c4ccccc4)c3)c2)c(I)c2cc(C(=O)O)c(O)cc21 [11a-5, 2-(3-(2-([1,1′-biphenyl]-3-ylamino)-2-oxoacetamido)phenyl)-6-hydroxy-3-iodo-1-methyl-1H-indole-5-carboxylic acid] | – | 770 ± 150 nM | SHP2 inhibition, in words [2]: strongly inhibited
Cn1c(CCCC(=O)Nc2cccc(OCc3ccccc3)c2)c(I)c2cc(C(=O)O)c(O)cc21 [7′a-1, 2-(4-((3-(benzyloxy)phenyl)amino)-4-oxobutyl)-6-hydroxy-3-iodo-1-methyl-1H-indole-5-carboxylic acid] | 5000 ± 300 nM | – | –
Cn1c(CCCC(=O)O)c(I)c2cc(C(=O)O)c(O)cc21 [7′a, 2-(3-carboxypropyl)-6-hydroxy-3-iodo-1-methyl-1H-indole-5-carboxylic acid] | > 20000 nM | – | –
Cn1c(-c2cccc(NC(=O)CCC(=O)Nc3ccc(OCc4ccccc4)c(Cl)c3)c2)c(I)c2cc(C(=O)O)c(O)cc21 [11c-3, 2-(3-(4-((4-(benzyloxy)-3-chlorophenyl)amino)-4-oxobutanamido)phenyl)-6-hydroxy-3-iodo-1-methyl-1H-indole-5-carboxylic acid] | – | 5000 ± 900 nM | –
Cn1c(-c2cccc(NC(=O)C(=O)N3CCc4cc(Br)ccc43)c2)c(I)c2cc(C(=O)O)c(O)cc21 [11a-7, 2-(3-(2-(5-bromoindolin-1-yl)-2-oxoacetamido)phenyl)-6-hydroxy-3-iodo-1-methyl-1H-indole-5-carboxylic acid] | – | 1050 ± 90 nM | –
